Assay results taken from patent US20150011588A1, “Novel formulation, omeprazole antacid complex-immediate release for rapid and sustained suppression of gastric acid” (priority 2003, published 2015).

Experiments:
[1] = clinical; conditions: human, plasma, oral, 40 mg
Text: Pharmacokinetic parameters disclosed herein include: (1) parameters obtained directly from the data without interpolation, including plasma omeprazole concentration, peak omeprazole plasma concentration (Cmax), and time to peak omeprazole plasma concentration (Tmax); (2) terminal elimination rate constant (kel) determined from a log-linear regression analysis of the terminal plasma omeprazole concentrations; (3) terminal elimination half-life (t1/2) calculated as 0.693/kel; (4) area under the omeprazole plasma concentration-time curve from time zero to time “t” (AUCo-t), calculated using the trapezodial rule with the plasma concentration at time “t” being the last measurable concentration; (5) area under the omeprazole plasma concentration-time curve from time zero to time infinity (AUC0-inf), calculated as AUC0-t+Ct/kel, where Ct is the last measurable plasma concentration and kel is the terminal elimination rate constant defined above.
Blood samples (10 mL) were taken within 30 minutes predose and up to 12 hours postdose; eg, postdose at 5, 10, 15, 30, 45, 60, 90, 120, 180, 240, 300, 360 minutes, and up to 12 hours in some studies.
(§1) This trial protocol is designed as a single-dose crossover trial. […] Each dose was followed by a 7-14 day washout. The same treatment was administered to all subjects in each trial period:
For the periods including omeprazole powder plus tablet administration, the subject received omeprazole powder administered directly onto the dorsal mid-tongue Immediately thereafter, subjects were given one chewable antacid tablet, which they began chewing. The subject continued to chew the tablet while mixing it with omeprazole powder, and carefully avoided swallowing the powder immediately. One minute after initiating chewing (and after completely swallowing trial medications), each subject drank 120 mL of water, swishing the oral contents before swallowing.
Pharmacokinetic evaluations include plasma omeprazole and esomeprazole concentration over time; and plasma omeprazole and esomeprazole C., Tmax, kel, T1/2, AUC(0-t), and AUC(0-inf).

[2] = system: gastric acidity; test: SAN-15-CO1C trial: gastric pH monitoring, omeprazole powder with or without antacid; type: in vivo, human; conditions: omeprazole 40 mg, administered 1 hour pre-meal, 10 subjects
Experimental: Pharmacodynamic parameters disclosed herein include: (1) mean gastric acid concentration; (2) onset time of gastric pH increase; (3) gastric pH over time; (4) length of time gastric pH is >4; (5) percentage (%) of time gastric pH is time pH>4 (in figures as “% time pH>4”); (6) median gastric pH; and (7) integrated gastric acidity, which is expressed as mM acid×time, (mmol acid×hr/L) is calculated as the cumulative time-weighted average of mean gastric acid concentration, as follows:
as §1
For periods requiring a meal, subjects fasted for at least 10 hours and were allowed water ad libitum until 2 hours prior to administration. Gastric pH monitoring was recorded for up to 11 hours beginning at time zero. The standard breakfast was ingested over 30 minutes beginning 90 minutes after the initiation of pH monitoring.
For periods including dosing after a meal, subjects fasted for at least 10 hours. On Day 0, ninety minutes of probe pH monitoring was started prior to initiating ingestion of the standardized breakfast, which was eaten within 30 minutes. The pH monitoring continued for 9.5 hours after initiating ingestion of breakfast. […]

AUC(0-inf) [1]: 225 ng·h/mL
AUC(0-t) [1]: 225 ng·h/mL
Cmax [1]: 186 ng/mL
SMILES: COc1ccc2[nH]c([S+]([O-])Cc3ncc(C)c(OC)c3C)nc2c1 (stereo not shown) [Omeprazole Powder]
Median Integrated Gastric Acidity 0-210 min. Post-meal [2]: 35 mmol·h/L
